Experimental data taken from ChEMBL document CHEMBL1201862, “PubChem BioAssay data set” (2004).
Values belong to the molecule of their own block, whether it stands above or below them. Activity calls are given as the source filed them.

Assays:
[1] = target: T1, Intestinal-type alkaline phosphatase (Homo sapiens, UniProt P09923); assay: human intestinal alkaline phosphatase activators, dose response, biochemical, luminescence, uHTS hits (AID 463120); assay type: functional
[2] = target: T2, Alkaline phosphatase, tissue-nonspecific isozyme (Homo sapiens, UniProt P05186); assay: activation of tissue-nonspecific alkaline phosphatase – biochemical, TNAP isozyme, human IAP uHTS hits, selectivity assay for human IAP activator project, dose response (AID 488886); assay type: functional;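 further: potency of compounds raising TNAP activity as a selectivity check on IAP activators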
T2 sequence (P05186 whole entry): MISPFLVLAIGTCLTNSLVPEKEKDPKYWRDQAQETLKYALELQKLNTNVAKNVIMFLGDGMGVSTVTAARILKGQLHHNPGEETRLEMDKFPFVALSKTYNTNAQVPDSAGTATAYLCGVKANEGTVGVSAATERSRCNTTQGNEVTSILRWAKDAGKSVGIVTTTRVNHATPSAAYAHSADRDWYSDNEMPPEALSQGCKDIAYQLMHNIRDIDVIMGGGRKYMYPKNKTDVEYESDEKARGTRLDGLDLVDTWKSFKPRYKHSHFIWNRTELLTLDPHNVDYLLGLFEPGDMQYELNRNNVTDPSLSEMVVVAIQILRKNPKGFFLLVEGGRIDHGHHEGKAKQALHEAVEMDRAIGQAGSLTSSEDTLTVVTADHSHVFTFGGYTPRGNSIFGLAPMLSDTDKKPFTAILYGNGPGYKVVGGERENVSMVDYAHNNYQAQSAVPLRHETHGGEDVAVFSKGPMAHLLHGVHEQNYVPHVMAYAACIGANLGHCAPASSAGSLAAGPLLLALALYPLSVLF

[3] = target: T1, Intestinal-type alkaline phosphatase; assay: activation of human intestinal alkaline phosphatase – biochemical, luminescent, uHTS hits, set 2, dose response (AID 488817); assay type: functional;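 further: potency of activators that raise enzyme activity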
[4] = target: Intestinal-type alkaline phosphatase (Mus musculus, UniProt P24822); assay: PubChem AID 488875; assay type: functional
SUMO E1/E2 = SUMO E1/E2 (Homo sapiens, UniProt P63279+Q9UBE0+Q9UBT2); assay: SAR analysis of SUMOylation using HTRF in an in-Vitro dose response assay. [Related pubchem assays (depositor defined):AID2006, AID2011, AID2018, AID2069, AID2658]; assay type: functional
[5] = target: Kappa-type opioid receptor (Homo sapiens, UniProt P41145); assay: SAR analysis of small molecule agonists of the kappa opioid receptor via a luminescent beta-arrestin assay - Set 3. [Related pubchem assays (depositor defined):AID1777, AID1785, AID1786, AID1966, AID2133, AID2136, AID2284, AID2500]; assay type: functional
Cytochrome P450 1A2 [6] = target: T3, Cytochrome P450 1A2 (Homo sapiens, UniProt P05177);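 further: PubChem cytochrome P450 panel assay, CYP1A2 panel member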
T3 sequence (P05177 whole entry): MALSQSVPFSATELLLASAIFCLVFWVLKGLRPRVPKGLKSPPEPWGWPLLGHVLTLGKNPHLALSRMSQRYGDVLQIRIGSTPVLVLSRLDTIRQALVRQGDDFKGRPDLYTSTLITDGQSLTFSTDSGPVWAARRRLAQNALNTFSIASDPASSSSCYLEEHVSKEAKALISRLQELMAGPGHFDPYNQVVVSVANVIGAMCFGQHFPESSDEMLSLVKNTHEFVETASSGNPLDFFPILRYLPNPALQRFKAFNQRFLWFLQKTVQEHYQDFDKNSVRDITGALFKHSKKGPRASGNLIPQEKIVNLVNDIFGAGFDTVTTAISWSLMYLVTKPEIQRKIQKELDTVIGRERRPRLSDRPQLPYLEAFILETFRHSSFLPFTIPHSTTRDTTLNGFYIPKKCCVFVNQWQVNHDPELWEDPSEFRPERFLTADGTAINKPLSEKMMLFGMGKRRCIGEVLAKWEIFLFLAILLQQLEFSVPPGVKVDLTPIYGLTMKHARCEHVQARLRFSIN

Cytochrome P450 1A2 [7] = target: T3, Cytochrome P450 1A2; remark: listed apart in the source

T1 sequence (P09923 whole entry): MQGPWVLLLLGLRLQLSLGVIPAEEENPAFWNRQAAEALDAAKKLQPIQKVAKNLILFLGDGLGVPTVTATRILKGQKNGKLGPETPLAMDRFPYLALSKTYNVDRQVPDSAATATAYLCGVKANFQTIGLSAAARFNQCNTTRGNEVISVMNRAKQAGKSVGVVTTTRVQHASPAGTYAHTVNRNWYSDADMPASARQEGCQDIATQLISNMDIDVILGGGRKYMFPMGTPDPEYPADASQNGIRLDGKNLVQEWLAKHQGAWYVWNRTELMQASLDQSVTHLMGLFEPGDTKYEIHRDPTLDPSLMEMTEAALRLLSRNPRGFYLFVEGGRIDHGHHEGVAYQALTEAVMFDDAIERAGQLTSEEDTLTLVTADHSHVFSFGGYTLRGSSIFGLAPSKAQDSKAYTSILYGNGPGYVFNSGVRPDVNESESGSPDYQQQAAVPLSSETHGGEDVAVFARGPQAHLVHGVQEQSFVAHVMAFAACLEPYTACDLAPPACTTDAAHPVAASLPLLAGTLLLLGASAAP
Sequence of Intestinal-type alkaline phosphatase (Mus musculus, UniProt P24822) (P24822 whole entry): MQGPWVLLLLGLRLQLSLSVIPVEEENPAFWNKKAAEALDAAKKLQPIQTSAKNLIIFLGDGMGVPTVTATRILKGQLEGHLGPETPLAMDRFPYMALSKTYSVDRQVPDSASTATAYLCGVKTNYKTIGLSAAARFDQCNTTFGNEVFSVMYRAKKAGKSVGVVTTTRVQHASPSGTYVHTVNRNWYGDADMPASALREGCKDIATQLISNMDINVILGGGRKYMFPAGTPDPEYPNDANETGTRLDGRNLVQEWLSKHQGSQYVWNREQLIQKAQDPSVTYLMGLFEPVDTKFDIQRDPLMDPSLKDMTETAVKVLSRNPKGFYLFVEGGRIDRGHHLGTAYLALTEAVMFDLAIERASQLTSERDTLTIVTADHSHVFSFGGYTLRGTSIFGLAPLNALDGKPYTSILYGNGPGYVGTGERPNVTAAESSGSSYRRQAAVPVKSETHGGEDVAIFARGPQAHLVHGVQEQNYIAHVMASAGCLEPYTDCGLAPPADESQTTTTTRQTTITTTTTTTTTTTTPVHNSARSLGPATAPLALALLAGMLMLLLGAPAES
Sequence of SUMO E1/E2 (Q9UBE0 whole entry): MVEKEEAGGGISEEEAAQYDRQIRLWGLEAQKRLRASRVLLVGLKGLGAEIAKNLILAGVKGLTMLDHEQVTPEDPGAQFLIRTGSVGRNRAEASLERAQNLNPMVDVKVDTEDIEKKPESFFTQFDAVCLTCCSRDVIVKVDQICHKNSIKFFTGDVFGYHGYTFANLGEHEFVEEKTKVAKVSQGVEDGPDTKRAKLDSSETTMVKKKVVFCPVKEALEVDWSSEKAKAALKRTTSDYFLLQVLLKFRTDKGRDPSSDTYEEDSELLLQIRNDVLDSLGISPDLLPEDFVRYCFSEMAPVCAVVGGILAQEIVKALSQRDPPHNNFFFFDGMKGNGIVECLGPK
Sequence of SUMO E1/E2 (Q9UBT2 whole entry): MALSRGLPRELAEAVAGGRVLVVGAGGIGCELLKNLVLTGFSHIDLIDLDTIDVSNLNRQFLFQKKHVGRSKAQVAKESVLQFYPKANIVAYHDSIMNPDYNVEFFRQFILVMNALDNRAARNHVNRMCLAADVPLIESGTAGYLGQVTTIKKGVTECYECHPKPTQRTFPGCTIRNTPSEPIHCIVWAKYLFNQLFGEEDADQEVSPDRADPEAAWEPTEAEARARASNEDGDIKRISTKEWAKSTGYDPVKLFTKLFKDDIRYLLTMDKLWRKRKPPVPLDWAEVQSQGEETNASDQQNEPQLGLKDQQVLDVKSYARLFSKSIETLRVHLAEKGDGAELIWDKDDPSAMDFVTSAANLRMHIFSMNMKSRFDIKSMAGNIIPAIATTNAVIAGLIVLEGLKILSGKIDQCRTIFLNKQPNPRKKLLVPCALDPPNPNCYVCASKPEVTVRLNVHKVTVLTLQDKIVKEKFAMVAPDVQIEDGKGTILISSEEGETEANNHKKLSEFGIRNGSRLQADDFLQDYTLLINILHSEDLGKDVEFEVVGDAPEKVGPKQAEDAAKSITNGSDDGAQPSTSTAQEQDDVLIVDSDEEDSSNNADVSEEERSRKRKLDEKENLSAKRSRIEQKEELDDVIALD
Sequence of SUMO E1/E2 (P63279 whole entry): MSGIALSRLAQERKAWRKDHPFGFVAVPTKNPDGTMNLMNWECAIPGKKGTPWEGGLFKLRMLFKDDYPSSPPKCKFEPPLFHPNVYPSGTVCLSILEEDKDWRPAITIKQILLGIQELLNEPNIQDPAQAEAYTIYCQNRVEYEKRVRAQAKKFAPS
Sequence of Kappa-type opioid receptor (P41145 whole entry): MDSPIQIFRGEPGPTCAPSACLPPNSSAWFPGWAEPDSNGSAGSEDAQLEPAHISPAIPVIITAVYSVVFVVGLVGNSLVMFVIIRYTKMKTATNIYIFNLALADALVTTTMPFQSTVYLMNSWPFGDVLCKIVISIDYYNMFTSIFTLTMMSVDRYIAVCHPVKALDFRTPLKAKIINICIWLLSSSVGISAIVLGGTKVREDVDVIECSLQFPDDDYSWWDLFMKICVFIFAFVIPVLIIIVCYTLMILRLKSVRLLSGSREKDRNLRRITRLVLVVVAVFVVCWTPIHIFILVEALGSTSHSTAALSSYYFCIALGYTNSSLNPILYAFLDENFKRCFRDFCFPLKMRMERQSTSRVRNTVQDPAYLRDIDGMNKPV

- EC50 [1]: 70.7 µM (active)
- EC50 [2]: 63.4 µM (active)
- EC50 [3]: 64.1 µM (active)
- EC50 [4]: 61 µM (active)
SMILES: Cc1ccccc1CN1CCC(n2nccc2NC(=O)CCCc2ccccc2)CC1

- IC50 (SUMO E1/E2): > 100 µM (inactive)
SMILES: COC(=O)c1ccc2c(c1)C1C=CCC1C(c1ccc(C(=O)O)cc1)N2 (stereo not drawn)

- EC50 [5]: 18.8 µM (inactive)
SMILES: COc1ccc(Cn2c(SCc3ccc(Cl)c(C(F)(F)F)c3)nnc2-c2ccccn2)cc1

SMILES: c1cncc([C@@H]2CCCCN2)c1 [ANABASINE]
- AC50 (Cytochrome P450 1A2 [6]): 5.01 µM (inconclusive)
- AC50 (Cytochrome P450 1A2 [7]): inconclusive
